Measured values reported in the NIST ThermoML archive (doi:10.1021/je100253m).
Numbers after ± are expanded uncertainties.

Conditions: Ring tensiometer

CCCC[N+]1(C)CCCC1.O=S(=O)([N-]S(=O)(=O)C(F)(F)F)C(F)(F)F
surface tension liquid-gas (293.15 K): 34.93 ± 0.51 mN/m
surface tension liquid-gas (303.15 K): 34.35 ± 0.51 mN/m
surface tension liquid-gas (313.15 K): 33.65 ± 0.5 mN/m
surface tension liquid-gas (323.15 K): 33.17 ± 0.49 mN/m
surface tension liquid-gas (333.15 K): 32.61 ± 0.48 mN/m
surface tension liquid-gas (343.15 K): 31.96 ± 0.48 mN/m

CCn1cc[n+](CC)c1.O=S(=O)([N-]S(=O)(=O)C(F)(F)F)C(F)(F)F [1,3-diethylimidazolium bis[(trifluoromethyl)sulfonyl]imide]
surface tension liquid-gas (293.15 K): 35.76 ± 0.52 mN/m
surface tension liquid-gas (303.15 K): 35.37 ± 0.52 mN/m
surface tension liquid-gas (313.15 K): 34.94 ± 0.51 mN/m
surface tension liquid-gas (323.15 K): 34.56 ± 0.51 mN/m
surface tension liquid-gas (333.15 K): 34.15 ± 0.5 mN/m
surface tension liquid-gas (343.15 K): 33.7 ± 0.5 mN/m

CCCCCCCCCCCCCC[P+](CCCCCC)(CCCCCC)CCCCCC.O=S(=O)([N-]S(=O)(=O)C(F)(F)F)C(F)(F)F
surface tension liquid-gas (293.15 K): 30.75 ± 0.46 mN/m
surface tension liquid-gas (303.15 K): 30.25 ± 0.46 mN/m
surface tension liquid-gas (313.15 K): 29.52 ± 0.45 mN/m
surface tension liquid-gas (323.15 K): 28.87 ± 0.44 mN/m
surface tension liquid-gas (333.15 K): 28.21 ± 0.43 mN/m
surface tension liquid-gas (343.15 K): 27.59 ± 0.42 mN/m

CCC[n+]1cccc(C)c1.O=S(=O)([N-]S(=O)(=O)C(F)(F)F)C(F)(F)F
surface tension liquid-gas (293.15 K): 36 ± 0.53 mN/m
surface tension liquid-gas (303.15 K): 35.53 ± 0.52 mN/m
surface tension liquid-gas (313.15 K): 35.1 ± 0.52 mN/m
surface tension liquid-gas (323.15 K): 34.53 ± 0.51 mN/m
surface tension liquid-gas (333.15 K): 34.05 ± 0.5 mN/m
surface tension liquid-gas (343.15 K): 33.55 ± 0.5 mN/m

CCCCn1cc[n+](C)c1C.O=S(=O)([N-]S(=O)(=O)C(F)(F)F)C(F)(F)F
surface tension liquid-gas (293.15 K): 37.4 ± 0.55 mN/m
surface tension liquid-gas (303.15 K): 35.54 ± 0.52 mN/m
surface tension liquid-gas (313.15 K): 33.83 ± 0.5 mN/m
surface tension liquid-gas (323.15 K): 32.2 ± 0.48 mN/m
surface tension liquid-gas (333.15 K): 30.49 ± 0.46 mN/m
surface tension liquid-gas (343.15 K): 28.74 ± 0.44 mN/m

CCC[N+]1(C)CCCC1.O=S(=O)([N-]S(=O)(=O)C(F)(F)F)C(F)(F)F
surface tension liquid-gas (293.15 K): 32.54 ± 0.48 mN/m
surface tension liquid-gas (303.15 K): 31.95 ± 0.48 mN/m
surface tension liquid-gas (313.15 K): 31.5 ± 0.47 mN/m
surface tension liquid-gas (323.15 K): 31 ± 0.46 mN/m
surface tension liquid-gas (333.15 K): 30.47 ± 0.46 mN/m
surface tension liquid-gas (343.15 K): 29.97 ± 0.45 mN/m
